Experimental data published in patent US9062124B2, “GIP-based mixed agonists for treatment of metabolic disorders and obesity” (priority 2008, dated 2015).
Where a SMILES comes first, the peptide text is derived from it. Bridges are numbered along the chain shown (N, C = ends). [ ]: non-standard residue; d: D form. Aib = CC(C)(N)C(=O)O

Assays:
Assay type in all cases: cell-based
GIP receptor = target: T1, GIP receptor (Homo sapiens, UniProt P48546); experiment: cAMP synthesis functional assay (firefly luciferase reporter in HEK293 cells), GIP receptor
T1 construct: expressed in transfected cells; host or cells: HEK293
T1 sequence (P48546 22-466): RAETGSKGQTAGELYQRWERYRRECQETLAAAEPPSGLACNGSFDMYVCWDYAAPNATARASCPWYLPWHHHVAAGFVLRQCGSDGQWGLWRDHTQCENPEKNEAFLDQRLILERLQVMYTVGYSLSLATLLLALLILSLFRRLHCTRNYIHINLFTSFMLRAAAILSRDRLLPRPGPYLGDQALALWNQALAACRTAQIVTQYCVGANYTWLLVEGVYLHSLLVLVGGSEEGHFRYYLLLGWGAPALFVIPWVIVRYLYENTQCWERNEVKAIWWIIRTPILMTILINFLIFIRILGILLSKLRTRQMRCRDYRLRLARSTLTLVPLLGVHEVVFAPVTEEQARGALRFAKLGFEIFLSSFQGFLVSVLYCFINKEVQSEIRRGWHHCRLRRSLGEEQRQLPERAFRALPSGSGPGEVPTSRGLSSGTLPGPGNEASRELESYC

glucagon receptor = target: T2, glucagon receptor (Homo sapiens, UniProt P47871); experiment: cAMP synthesis functional assay (firefly luciferase reporter in HEK293 cells), glucagon receptor
T2 construct: expressed in transfected cells; host or cells: HEK293

[1] = test system: glucagon receptor, GLP-1 receptor or GIP receptor; experiment: Agonist profile across receptors assigned from the cAMP reporter assay data; settings: assigned from the in vitro EC50 data of Tables 1-4
GLP-1 receptor = target: T3, GLP-1 receptor (Homo sapiens, UniProt P43220); experiment: cAMP synthesis functional assay (firefly luciferase reporter in HEK293 cells), GLP-1 receptor
T3 construct: expressed in transfected cells; host or cells: HEK293

[2] = relative to the standard (Std.) EC50 of the same run
[3] = Table 1, relative to the native hormone of the indicated receptor

T2 sequence (P47871 26-477): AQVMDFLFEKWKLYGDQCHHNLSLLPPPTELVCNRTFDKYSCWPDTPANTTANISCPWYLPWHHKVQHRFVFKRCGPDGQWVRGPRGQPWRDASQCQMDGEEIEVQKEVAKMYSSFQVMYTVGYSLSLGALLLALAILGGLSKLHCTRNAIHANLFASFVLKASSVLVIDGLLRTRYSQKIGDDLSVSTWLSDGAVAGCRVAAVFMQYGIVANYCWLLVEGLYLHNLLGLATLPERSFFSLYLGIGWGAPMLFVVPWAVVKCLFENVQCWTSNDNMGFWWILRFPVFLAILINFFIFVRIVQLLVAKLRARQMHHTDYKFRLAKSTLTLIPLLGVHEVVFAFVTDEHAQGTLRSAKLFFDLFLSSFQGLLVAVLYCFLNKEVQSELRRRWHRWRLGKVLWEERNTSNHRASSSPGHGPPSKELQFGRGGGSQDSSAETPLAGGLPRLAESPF
T3 sequence (P43220 24-463, species assumed): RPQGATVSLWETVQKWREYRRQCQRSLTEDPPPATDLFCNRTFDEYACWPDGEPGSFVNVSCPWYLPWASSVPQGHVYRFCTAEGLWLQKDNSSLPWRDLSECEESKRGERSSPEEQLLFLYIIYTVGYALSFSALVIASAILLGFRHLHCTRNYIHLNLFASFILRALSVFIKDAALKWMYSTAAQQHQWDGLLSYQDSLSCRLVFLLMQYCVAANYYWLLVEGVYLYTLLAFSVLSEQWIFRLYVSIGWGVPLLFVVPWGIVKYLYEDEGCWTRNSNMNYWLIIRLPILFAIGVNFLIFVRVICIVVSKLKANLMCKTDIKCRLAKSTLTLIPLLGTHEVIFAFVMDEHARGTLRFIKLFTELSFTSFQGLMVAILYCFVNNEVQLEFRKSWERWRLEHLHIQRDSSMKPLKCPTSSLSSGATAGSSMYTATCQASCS

Row | SMILES | GIP Receptor relative activity (GIP receptor; [2]) [%] | EC50 (glucagon receptor; Glucagon Receptor EC50, cAMP luciferase reporter assay as in Example 16) [pM] | Glucagon Receptor relative activity (glucagon receptor; [2]) [%] | receptor activity profile (glucagon / GLP-1 / GIP agonism) [1] | EC50 (GLP-1 receptor; GLP-1 Receptor EC50, cAMP luciferase reporter assay as in Example 16) [pM] | GLP-1 Receptor relative activity (GLP-1 receptor; [2]) [%] | GIP Receptor relative activity (GIP receptor; [3]) [%] | Glucagon Receptor relative activity (glucagon receptor; [3]) [%] | GLP-1 Receptor relative activity (GLP-1 receptor; [3]) [%]
1 | CC[C@H](C)[C@H](NC(=O)[C@H](CO)NC(=O)[C@H](Cc1ccc(O)cc1)NC(=O)[C@H](CC(=O)O)NC(=O)[C@H](CO)NC(=O)[C@@H](NC(=O)[C@H](Cc1ccccc1)NC(=O)[C@@H](NC(=O)CNC(=O)[C@H](CCC(N)=O)NC(=O)C(C)(C)NC(=O)[C@@H](N)Cc1ccc(O)cc1)[C@@H](C)O)[C@@H](C)O)C(=O)N[C@@H](Cc1ccc(O)cc1)C(=O)N[C@@H](CC(C)C)C(=O)N[C@@H](CC(=O)O)C(=O)N[C@@H](CCCCN)C(=O)N[C@@H](CCC(N)=O)C(=O)N[C@@H](C)C(=O)N[C@@H](C)C(=O)NC(C)(C)C(=O)N[C@@H](CCC(=O)O)C(=O)N[C@@H](Cc1ccccc1)C(=O)N[C@H](C(=O)N[C@@H](CC(N)=O)C(=O)N[C@@H](Cc1c[nH]c2ccccc12)C(=O)N[C@@H](CC(C)C)C(=O)N[C@@H](CC(C)C)C(=O)N[C@@H](C)C(=O)NCC(=O)NCC(=O)N1CCC[C@H]1C(=O)N[C@@H](CO)C(=O)N[C@@H](CO)C(=O)NCC(=O)N[C@@H](C)C(=O)N1CCC[C@H]1C(=O)N1CCC[C@H]1C(=O)N1CCC[C@H]1C(=O)N[C@@H](CO)C(=O)N[C@@H](CCCCN)C(N)=O)C(C)C [mt-280] (H-Y[Aib]QGTFTSDYSIYLDKQAA[Aib]EFVNWLLAGGPSSGAPPPSK-NH2; N-terminus assumed) | 159.06 | 67.7 | 74.74 | exhibited activity at the GIP, GLP-1, and glucagon receptors | 12.6 | 153.17 |  |  | 
2 | CC[C@H](C)[C@H](NC(=O)[C@H](CO)NC(=O)[C@H](Cc1ccc(O)cc1)NC(=O)[C@H](CC(=O)O)NC(=O)[C@H](CO)NC(=O)[C@@H](NC(=O)[C@H](Cc1ccccc1)NC(=O)[C@@H](NC(=O)CNC(=O)[C@H](CCC(N)=O)NC(=O)C(C)(C)NC(=O)[C@@H](N)Cc1ccc(O)cc1)[C@@H](C)O)[C@@H](C)O)C(=O)N[C@@H](Cc1ccc(O)cc1)C(=O)N[C@@H](CC(C)C)C(=O)N[C@@H](CC(=O)O)C(=O)N[C@H]1CCC(=O)NCCCC[C@@H](C(=O)N[C@@H](CCC(=O)O)C(=O)N[C@@H](Cc2ccccc2)C(=O)N[C@H](C(=O)N[C@@H](CS)C(=O)N[C@@H](Cc2c[nH]c3ccccc23)C(=O)N[C@@H](CC(C)C)C(=O)N[C@@H](CC(C)C)C(=O)N[C@@H](C)C(=O)NCC(N)=O)C(C)C)NC(=O)[C@H](C)NC(=O)[C@H](C)NC(=O)[C@H](CCC(N)=O)NC1=O [mt-169] (H-Y[Aib]QGTFTSDYSIYLDEQAAKEFVCWLLAG-NH2; lactam 16-20; N-terminus assumed) |  |  |  | exemplary GLP-1/GIP/glucagon triagonist peptides |  |  | 14.79 | 51.26 | 54.39
